According to ChEMBL document CHEMBL2440076, “New triarylpyrazoles as broad-spectrum anticancer agents: design, synthesis, and biological evaluation” (Eur J Med Chem, 2013):

Key:
Assay type in all cases: functional
MCF7 = test: Growth inhibition of human MCF7 cells assessed as cell growth at 3X10'-5 M after 48 hrs by sulforhodamine B assay; details: MCF7, 48 h, read-out: Activity
SNB-75 = test: Growth inhibition of human SNB75 cells assessed as cell growth at 3X10'-6 M after 48 hrs by sulforhodamine B assay; details: SNB-75, 48 h, read-out: Activity
HT-29 [1] = test: Growth inhibition of human HT-29 cells assessed as cell growth at 3X10'-6 M after 48 hrs by sulforhodamine B assay; details: HT-29, 48 h, read-out: Activity
U-251 [2] = test: Growth inhibition of human U251 cells assessed as cell growth at 3X10'-5 M after 48 hrs by sulforhodamine B assay; details: U-251, 48 h, read-out: Activity
KM12 [3] = test: Growth inhibition of human KM12 cells assessed as cell growth at 3X10'-5 M after 48 hrs by sulforhodamine B assay; details: KM12, 48 h, read-out: Activity
UACC-257 = test: Growth inhibition of human UACC257 cells assessed as cell growth at 3X10'-7 M after 48 hrs by sulforhodamine B assay; details: UACC-257, 48 h, read-out: Activity
HOP-92 [4] = test: Growth inhibition of human HOP92 cells assessed as cell growth at 3X10'-5 M after 48 hrs by sulforhodamine B assay; details: HOP-92, 48 h, read-out: Activity
MDA-MB-468 = test: Growth inhibition of human MDA-MB-468 cells assessed as cell growth at 3X10'-7 M after 48 hrs by sulforhodamine B assay; details: MDA-MB-468, 48 h, read-out: Activity
RPMI-8226 = test: Growth inhibition of human RPMI8226 cells assessed as cell growth at 3X10'-9 M after 48 hrs by sulforhodamine B assay; details: RPMI-8226, 48 h, read-out: Activity
KM12 [5] = test: Growth inhibition of human KM12 cells assessed as cell growth at 3X10'-9 M after 48 hrs by sulforhodamine B assay; details: KM12, 48 h, read-out: Activity
OVCAR-4 = test: Growth inhibition of human OVCAR4 cells assessed as cell growth at 3X10'-8 M after 48 hrs by sulforhodamine B assay; details: OVCAR-4, 48 h, read-out: Activity
ACHN [6] = test: Growth inhibition of human ACHN cells assessed as cell growth at 3X10'-5 M after 48 hrs by sulforhodamine B assay; details: read-out: Activity
[7] = Growth inhibition of human HCC2998 cells assessed as cell growth at 3X10'-5 M after 48 hrs by sulforhodamine B assay; details: HCC 2998, 48 h, read-out: Activity
KM12 [8] = test: Growth inhibition of human KM12 cells assessed as cell growth at 3X10'-8 M after 48 hrs by sulforhodamine B assay; details: KM12, 48 h, read-out: Activity
HCT-116 = test: Growth inhibition of human HCT116 cells assessed as cell growth at 3X10'-5 M after 48 hrs by sulforhodamine B assay; details: HCT-116, 48 h, read-out: Activity
MOLT-4 [9] = test: Growth inhibition of human MOLT4 cells assessed as cell growth at 3X10'-9 M after 48 hrs by sulforhodamine B assay; details: MOLT-4, 48 h, read-out: Activity
HT-29 [10] = test: Growth inhibition of human HT-29 cells assessed as cell growth at 3X10'-7 M after 48 hrs by sulforhodamine B assay; details: HT-29, 48 h, read-out: Activity
U-251 [11] = test: Growth inhibition of human U251 cells assessed as cell growth at 3X10'-7 M after 48 hrs by sulforhodamine B assay; details: U-251, 48 h, read-out: Activity
SN12C = test: Growth inhibition of human SN12C cells assessed as cell growth at 3X10'-9 M after 48 hrs by sulforhodamine B assay; details: read-out: Activity
UACC-62 = test: Growth inhibition of human UACC62 cells assessed as cell growth at 3X10'-5 M after 48 hrs by sulforhodamine B assay; details: UACC-62, 48 h, read-out: Activity
SK-MEL-2 = test: Growth inhibition of human SK-MEL-2 cells assessed as cell growth at 3X10'-7 M after 48 hrs by sulforhodamine B assay; details: SK-MEL-2, 48 h, read-out: Activity
NCI-H23 [12] = test: Growth inhibition of human NCI-H23 cells assessed as cell growth at 3X10'-7 M after 48 hrs by sulforhodamine B assay; details: NCI-H23, 48 h, read-out: Activity
PC-3 = test: Growth inhibition of human PC3 cells assessed as cell growth at 3X10'-7 M after 48 hrs by sulforhodamine B assay; details: PC-3, 48 h, read-out: Activity
BT-549 = test: Growth inhibition of human BT549 cells assessed as cell growth at 3X10'-7 M after 48 hrs by sulforhodamine B assay; details: BT-549, 48 h, read-out: Activity
HT-29 [13] = test: Growth inhibition of human HT-29 cells assessed as cell growth at 3X10'-8 M after 48 hrs by sulforhodamine B assay; details: HT-29, 48 h, read-out: Activity
NCI-H322M = test: Growth inhibition of human NCI-H322M cells assessed as cell growth at 3X10'-5 M after 48 hrs by sulforhodamine B assay; details: read-out: Activity
HOP-92 [14] = test: Growth inhibition of human HOP92 cells assessed as cell growth at 3X10'-9 M after 48 hrs by sulforhodamine B assay; details: HOP-92, 48 h, read-out: Activity
ACHN [15] = test: Growth inhibition of human ACHN cells assessed as cell growth at 3X10'-7 M after 48 hrs by sulforhodamine B assay; details: read-out: Activity
[16] = Growth inhibition of human NCI-ADR-RES cells assessed as cell growth at 3X10'-8 M after 48 hrs by sulforhodamine B assay; details: read-out: Activity
A498 = test: Growth inhibition of human A498 cells assessed as cell growth at 3X10'-9 M after 48 hrs by sulforhodamine B assay; details: A498, 48 h, read-out: Activity
M14 = test: Growth inhibition of human M14 cells assessed as cell growth at 3X10'-9 M after 48 hrs by sulforhodamine B assay; details: M14, 48 h, read-out: Activity
MOLT-4 [17] = test: Growth inhibition of human MOLT4 cells assessed as cell growth at 3X10'-8 M after 48 hrs by sulforhodamine B assay; details: MOLT-4, 48 h, read-out: Activity
[18] = Growth inhibition of human NCI-ADR-RES cells assessed as cell growth at 3X10'-5 M after 48 hrs by sulforhodamine B assay; details: read-out: Activity
SNB-19 = test: Growth inhibition of human SNB19 cells assessed as cell growth at 3X10'-6 M after 48 hrs by sulforhodamine B assay; details: SNB-19, 48 h, read-out: Activity
T47D [19] = test: Growth inhibition of human T47D cells assessed as cell growth at 3X10'-5 M after 48 hrs by sulforhodamine B assay; details: read-out: Activity
Malme-3M = test: Growth inhibition of human MALME-3M cells assessed as cell growth at 3X10'-9 M after 48 hrs by sulforhodamine B assay; details: read-out: Activity
T47D [20] = test: Growth inhibition of human T47D cells assessed as cell growth at 3X10'-9 M after 48 hrs by sulforhodamine B assay; details: read-out: Activity
NCI-H23 [21] = test: Growth inhibition of human NCI-H23 cells assessed as cell growth at 5X10'-6 M after 48 hrs by sulforhodamine B assay; details: NCI-H23, 48 h, read-out: Activity

| Structure (SMILES) | growth at 30 µM (MCF7) | growth at 3 µM (HT-29 [1]) | growth at 30 µM (U-251 [2]) | growth at 30 µM (KM12 [3]) | growth at 0.3 µM (UACC-257) | growth at 30 µM (HOP-92 [4]) | growth at 0.3 µM (MDA-MB-468) | growth at 0.003 µM (RPMI-8226) | growth at 0.003 µM (KM12 [5]) | growth at 0.03 µM (OVCAR-4) | growth at 30 µM (ACHN [6]) | growth at 30 µM [7] | growth at 0.03 µM (KM12 [8]) | growth at 30 µM (HCT-116) | growth at 0.003 µM (MOLT-4 [9]) | growth at 0.3 µM (HT-29 [10]) | growth at 0.3 µM (U-251 [11]) | growth at 0.003 µM (SN12C) | growth at 30 µM (UACC-62) | growth at 0.3 µM (SK-MEL-2) | also measured |
| --- | --- | --- | --- | --- | --- | --- | --- | --- | --- | --- | --- | --- | --- | --- | --- | --- | --- | --- | --- | --- | --- |
| COc1cc(-c2nn(-c3cccc(NC(=O)c4ccc(Cl)c(C(F)(F)F)c4)c3)cc2-c2ccncc2)ccc1Cl | 13% | 51% | 15% | 17% | 90% | -8% | 89% | 97% | 98% | 103% | 32% | 29% | 96% | 18% | 100% | 93% | 91% | 98% | 20% | 96% | growth at 3 µM (SNB-75): 44%; growth at 0.3 µM (NCI-H23 [12]): 92%; growth at 0.3 µM (PC-3): 78%; growth at 0.3 µM (BT-549): 95%; growth at 0.03 µM (HT-29 [13]): 99%; growth at 30 µM (NCI-H322M): 34%; growth at 0.003 µM (HOP-92 [14]): 94%; growth at 0.3 µM (ACHN [15]): 90%; growth at 0.03 µM [16]: 94%; growth at 0.003 µM (A498): 95%; growth at 0.003 µM (M14): 99%; growth at 0.03 µM (MOLT-4 [17]): 97%; growth at 30 µM [18]: -19%; growth at 3 µM (SNB-19): 66%; growth at 30 µM (T47D [19]): 18%; growth at 0.003 µM (Malme-3M): 80%; growth at 0.003 µM (T47D [20]): 95% |
| O=C(Nc1cccc(-n2cc(-c3ccncc3)c(-c3ccc(Cl)c(O)c3)n2)c1)Nc1ccc(Cl)c(C(F)(F)F)c1 | 2% | 21% | -80% | -70% | 93% | -63% | 72% | 96% | 101% | 95% | 2% | -64% | 103% | -43% | 110% | 93% | 82% | 95% | -83% | 108% | growth at 0.3 µM (NCI-H23 [12]): 93%; growth at 0.3 µM (PC-3): 73%; growth at 0.3 µM (BT-549): 104%; growth at 0.03 µM (HT-29 [13]): 107%; growth at 30 µM (NCI-H322M): -58%; growth at 0.003 µM (HOP-92 [14]): 79%; growth at 0.3 µM (ACHN [15]): 84%; growth at 0.03 µM [16]: 102%; growth at 0.003 µM (A498): 91%; growth at 0.003 µM (M14): 100%; growth at 0.03 µM (MOLT-4 [17]): 116%; growth at 30 µM [18]: -1%; growth at 3 µM (SNB-19): 9%; growth at 30 µM (T47D [19]): 10%; growth at 0.003 µM (Malme-3M): 100%; growth at 0.003 µM (T47D [20]): 102% |
| O=C(Nc1cccc(-n2cc(-c3ccncc3)c(-c3ccc(Cl)c(O)c3)n2)c1)Nc1cc(C(F)(F)F)cc(C(F)(F)F)c1 |  |  |  |  |  |  |  |  |  |  |  |  |  |  |  |  |  |  |  |  | growth at 5 µM (NCI-H23 [21]): -18% |
| O=C(Nc1cccc(-n2cc(-c3ccncc3)c(-c3ccc(Cl)c(O)c3)n2)c1)c1ccc(N2CCOCC2)c(C(F)(F)F)c1 |  |  |  |  |  |  |  |  |  |  |  |  |  |  |  |  |  |  |  |  | growth at 5 µM (NCI-H23 [21]): 46% |
